Assay results published in patent US9284350B2, “IAP BIR domain binding compounds” (Pharmascience Inc., priority 2010, dated 2016).

Experiments:
XIAP = target: T1, XIAP (Homo sapiens, UniProt P98170); test: Fluorescence polarization-based competition assay, XIAP; assay type: binding; conditions: FP assay, ki derived from IC50
T1 construct: fused on or other part: GST tag at the N-terminus (pGEX4T vectors)
Procedure, shortened: (§1)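 Competition of FITC-labelled probe (2 nM) binding to the BIR domain, protein set at 80% of maximal FP signal; 10-point compound dilutions in 50 mM HEPES pH 7.5, γ-globulin, 2 mM DTT, 1% DMSO, 1 h at room temperature in the dark. IC50 from sigmoidal fit; Ki derived from IC50.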

c-IAP1 = target: T2, c-IAP1 (Homo sapiens, UniProt Q13490); test: Fluorescence polarization-based competition assay, c-IAP1; assay type: binding; conditions: FP assay, ki derived from IC50
T2 construct: GST (N); made in house; host or cells: E. coli DH5α
T2 sequence (Q13490 251-363): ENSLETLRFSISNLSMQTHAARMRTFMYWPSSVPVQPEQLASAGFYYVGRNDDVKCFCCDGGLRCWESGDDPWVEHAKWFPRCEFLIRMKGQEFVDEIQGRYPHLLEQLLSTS
Procedure, shortened: as §1

cIAP2 = target: T3, cIAP2 (Homo sapiens, UniProt Q13489); test: Fluorescence polarization-based competition assay, cIAP2; assay type: binding; conditions: FP assay, ki derived from IC50
T3 construct: GST (N); made in house; host or cells: E. coli DH5α
T3 sequence (Q13489 236-349): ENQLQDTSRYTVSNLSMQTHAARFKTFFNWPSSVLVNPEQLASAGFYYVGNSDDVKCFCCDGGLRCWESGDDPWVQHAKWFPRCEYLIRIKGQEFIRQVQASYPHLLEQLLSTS
Procedure, shortened: as §1

[1] = tested on: Colorectal carcinoma HCT116 cells; test: Cell death assay (MTT) in combination with HGS ETR1; assay type: cell-based; conditions: with HGS ETR1 30 ng/ml, 72 hours, read-out: HCT116+ mapatubimap EC50
Procedure, shortened: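 HCT116 cells (2000/well, McCoy's 5a, 10% FBS) were treated 24 h after plating with compound plus the agonistic TRAIL receptor antibody mapatumumab (ETR1, 30 ng/ml) for 72 hours. Viability was read by MTT. EC50 was the concentration giving 50% survival relative to untreated controls.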

MDA-MB-231 (CD) cells = test: MDA-MB-231 compound + mapatubamab xenograft study; assay type: in vivo, nude mice; conditions: 30 and 60 mg/kg, PO, QD in combination with mapatubamab (10 mg/kg, IV)
Method: Female, nude mice received 5×10^6 MDA-MB-231 (CD) cells subcutaneously in the right flank (0.1 mL volume) on day 0 of the experiment. When the average tumor size reached ˜100 mm^3, groups were formed using a balanced design based on tumor size, and dosing was initiated. Test compound 10 or 7 (see Table 1) (or corresponding vehicle alone) was given daily, and mapatubamab (or corresponding vehicle alone) was given twice weekly. Tumor size and body weight were measured twice weekly throughout the study.

[2] = Maximum Tolerated Dose (MTD) study; assay type: in vivo, CD-1 mice; conditions: 350 mg/kg dose, PO twice weekly
Method: Male, CD-1 mice (20-25 g on arrival, Charles River) were habituated to the animal facility for four days and then randomly assigned to treatment groups. Animals were dosed by oral gavage twice weekly, for a total of six treatments, with compounds 63, 58, 45, 10, 20, 40, and 66 at 15, 70, or 350 mg/kg in water, PO, or water alone (5 ml/kg, PO). Body weight and general health were monitored throughout the experiment. Twenty four hours after the last dose (day 19), animals were anesthetized with isoflurane, and blood was collected for serum biochemistry. Serum biochemical parameters were restricted to random glucose, urea, creatinine, total protein, albumin, globulin, A:G ratio, total bilirubin, AST, ALT, alkaline phosphatase, GGT and amylase. Once exsanguinated the animals underwent full necropsy and organ weights were recorded for brain, heart, liver, spleen, kidneys, stomach (empty) and intestine (empty, from stomach to cecum). Because some treatments were suppressing weight gain (see below), organ weights were normalized to brain weight, and then expressed as percent change from the vehicle treated control group.

T1 sequence (P98170 246-497 limits assumed): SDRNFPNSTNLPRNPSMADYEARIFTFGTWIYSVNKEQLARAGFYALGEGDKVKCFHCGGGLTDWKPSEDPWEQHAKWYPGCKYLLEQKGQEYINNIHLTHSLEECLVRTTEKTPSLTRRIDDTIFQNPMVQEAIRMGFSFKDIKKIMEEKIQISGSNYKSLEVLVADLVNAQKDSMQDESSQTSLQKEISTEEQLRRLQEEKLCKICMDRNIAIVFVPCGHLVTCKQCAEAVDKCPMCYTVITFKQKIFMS

Compound | Ki (XIAP) | Ki (c-IAP1) | Ki (cIAP2) | EC50 [1] | reduction of tumor volume as compared to control (MDA-MB-231 (CD) cells) | body weight change [2]
CN[C@@H](C)C(=O)N[C@H](C(=O)N1CCC[C@H]1CN(CCc1ccccc1)C(=O)c1cn2ccccc2n1)C(C)(C)C [Compound 7] | < 0.25 µM | < 0.025 µM | < 0.025 µM | < 0.25 µM | 50% | 
CN[C@@H](C)C(=O)N[C@H](C(=O)N1CCC[C@H]1CN(CCc1ccc(F)cc1)C(=O)c1cn(C)cn1)C(C)(C)C [Compound 40] | < 0.25 µM | < 0.025 µM | < 0.025 µM | < 0.05 µM |  | slight weight loss
CN[C@@H](C)C(=O)N[C@H](C(=O)N1CCC[C@H]1CN(CCc1ccc(F)cc1)C(=O)c1cn2cc(F)cnc2n1)C(C)(C)C [Compound 63] | < 0.25 µM | < 0.025 µM | < 0.025 µM | < 0.05 µM |  | slight weight loss
CN[C@@H](C)C(=O)N[C@H](C(=O)N1CCC[C@H]1CN(CCc1ccc(F)cc1)C(=O)c1ncc(-c2ccccc2)o1)C(C)(C)C [Compound 123] | < 0.25 µM | < 0.025 µM | < 0.025 µM | < 0.05 µM |  | 

Continued, in another order:

Ki (XIAP) | Ki (c-IAP1) | Ki (cIAP2) | Compound | EC50 [1] | reduction of tumor volume as compared to control (MDA-MB-231 (CD) cells) | body weight change [2]
< 0.25 µM | < 0.025 µM | < 0.025 µM | CN[C@@H](C)C(=O)N[C@H](C(=O)N1CCC[C@H]1CN(CCc1ccc(F)cc1)C(=O)c1cn2cccnc2n1)C(C)(C)C [Compound 10] | < 0.05 µM | 50% | 
< 0.25 µM | < 0.025 µM | < 0.025 µM | CN[C@@H](C)C(=O)N[C@H](C(=O)N1CCC[C@H]1CN(CCc1ccc(F)cc1)C(=O)c1cc(-c2ccccc2)on1)C(C)(C)C [Compound 115] | < 0.25 µM |  | 
< 0.025 µM | < 0.025 µM | < 0.025 µM | CN[C@@H](C)C(=O)N[C@H](C(=O)N1C[C@@H](Oc2ccc(F)cc2)C[C@H]1CN(CCc1ccc(F)cc1)C(=O)c1cn2cc(F)cnc2n1)C(C)(C)C [Compound 116] | < 0.05 µM |  | 
< 1 µM | < 0.025 µM | < 0.025 µM | CN[C@@H](C)C(=O)N[C@H](C(=O)N1CCC[C@H]1CN(CCc1ccc(F)cc1)C(=O)c1nnc(-c2ccccc2)o1)C(C)(C)C [Compound 117] | < 0.25 µM |  | 
< 0.25 µM | < 0.025 µM | < 0.025 µM | CN[C@@H](C)C(=O)N[C@H](C(=O)N1CCC[C@H]1CN(CCc1ccc(F)cc1)C(=O)c1cn(C)cn1)C1CCCCC1 [Compound 120] | < 0.05 µM |  | 
< 0.25 µM | < 0.025 µM | < 0.025 µM | CN[C@@H](C)C(=O)N[C@H](C(=O)N1CCC[C@H]1CN(CCc1ccc(F)cc1)C(=O)c1ccn(-c2ccccc2)c1)C(C)(C)C [Compound 122] | < 0.25 µM |  | 
< 0.25 µM | < 0.025 µM | < 0.025 µM | CN[C@@H](C)C(=O)N[C@H](C(=O)N1C[C@@H](Oc2ccccc2)C[C@H]1CN(CCc1ccc(F)cc1)C(=O)c1cn2cccnc2n1)C(C)(C)C [Compound 124] | < 0.05 µM |  | 
